Tests used:
[1] = test system: Watanabe Heritable Hyperlipidemic Rabbits (WHHL); test: Blood lipid profile in WHHL rabbits; assay type: in vivo, rabbit; settings: end of treatment
Description: Hypercholesterolemia and oxidative stress occupy an important function in the progress of atherosclerosis. Lipids (cholesterol and LDL) in the blood were evaluated by analyzing the blood samples both at the baseline and the end point measurements. 1 ml of blood from an ear lobe vein was placed into K EDTA tubes at a start of high cholesterol diet and again at the time of sacrifice. All values were expressed as mean±SD. The bar graph of each group for total cholesterol and LDL cholesterol at baseline prior to the initiation of high fat chow, following high fat chow but before intervention and at the end of intervention with INV-75 and control are presented. (FIG. 14 A and FIG. 14B). […] The lack of effect may relate to the genetic model (WHHL) which has extremely high lipid values and a mutation in the LDL receptor. Since INV 75 is believed to function by increasing LDL clearance through an increase in LDL receptor expression, the lack of effect on LDL cholesterol and total cholesterol (major lipoprotein fraction in this model at baseline and in response to high fat chow feeding) is understandable.

[2] = test system: Watanabe Heritable Hyperlipidemic Rabbits (WHHL); test: Superoxide by dihydroethidium staining of WHHL aorta sections; assay type: in vivo, rabbit
[3] = test system: Watanabe Heritable Hyperlipidemic Rabbits (WHHL); test: Morphometric analysis of atherosclerotic burden in WHHL rabbits; assay type: in vivo, rabbit; settings: end of 12 weeks, H&E morphometry
Description: Segments of descending thoracic aorta were embedded in Optimal Cutting Temperature compound (Tissue-Tek, Sakura Finetek USA Inc, Torrance, Calif.) and frozen on dry ice. En face sections were then prepared. To analyze atherosclerotic burden, 8 sections (4 μm thick) were collected at intervals of 20 μm. After H&E staining, each section was digitized with a digital camera and analyzed using a microscope (Zeiss Axioskop with Spot I digital camera, Jena, Germany) with National Institutes of Health (NIH) Image software version 1.61. Results were expressed as mm^2. Morphometric assessment of plaque burden in the thoracic aorta at the end of 12 weeks corroborated the anti-atherosclerotic effects of INV-75 by MRI on the abdominal aorta. The summary of atherosclerotic burden in abdominal aorta of control and INV-75 groups of WHHL rabbits are presented. n=5/group. *, p<0.05 vs control animals, n=4, using un-paired t test. Approximately 60% reduction in atherosclerosis burden in WHHL rabbits compared to control group was observed (FIG. 9).

[4] = test system: Watanabe Heritable Hyperlipidemic Rabbits (WHHL); test: 8-Isoprostane enzyme linked immunoassay in WHHL rabbits; assay type: in vivo, rabbit; settings: vs control groups
Description: […] […] Both samples underwent affinity purification (Cayman Chemical, Ann Arbor, Mich.) and then measurement of 8-isoprostane with the Stat-8-Isoprostane ELISA kit (Cayman Chemical, Ann Arbor, Mich.). […] The protein levels in liver lysates were determined by BCA Protein Assay (Pierce, Rockford, Ill.).

PPARα = biological target: T1, PPARα (Homo sapiens, UniProt Q07869); test: GAL4-PPARα-LBD luciferase assay in HepG2 cells; assay type: cell-based
T1 construct: HepG2 cells transfected with yeast GAL4-PPARα-LBD plasmid+UAS-Luciferase; expressed in transfected cells; host or cells: HepG2
Text: (§1) We used a reporter gene assay in HepG2 cells to screen for agonists of the peroxisome proliferator-activated receptors. Peroxisome proliferator-activated receptors (PPARs) and other members of the nuclear hormone receptor family are important drug targets for the treatment of metabolic diseases. PPARs play crucial roles in lipid and glucose metabolism, respectively. Therefore, screening methods that help to rapidly identify activators of these receptors should be of considerable value. INV-75 activated a classic PPARα gene, Acetyl-CoA Oxidase (ACO) in a dose dependent and time dependent fashion (FIG. 6A). The time course experiment was performed in presence of INV-75 up to 15 hours. […] We next tested the specificity of INV-75 for PPARα by performing experiments in HepG2 cells transfected with yeast GAL4-PPARα-LBD plasmid+UAS-Luciferase; GAL4-PPARδ-LBD plasmid+UAS-Luciferase and […]. The PPARα, PPARδ and PPARγ binding assays were performed using multiple concentrations of INV-75 (1 μM, 10 μM, 100 μM and 1000 μM). The level of luciferase activity corresponded to the degree of PPAR activation. The results were compared with classic PPAR agonists such as WY-14643 (PPARα agonist), Bezafibrate (PPARδ agonist) and Rosiglitazone ([…]).

PPARδ = biological target: T2, PPARδ (Homo sapiens, UniProt Q03181); test: GAL4-PPARδ-LBD luciferase assay in HepG2 cells; assay type: cell-based; settings: 1 μM to 1000 μM
T2 construct: GAL4-PPARδ-LBD plasmid+UAS-Luciferase; expressed in transfected cells; host or cells: HepG2
Text: as §1

Patient = test: Treatment of a patient with chronic myocardial infarction (Example 19); assay type: in vivo, human; settings: 1.0 to 100 mg/kg with standard therapy
Description: A person with a prior history of a heart attack (myocardial infarction) 1 year ago presents for evaluation. They are asymptomatic. The patient is administered a composition comprising an effective amount of 3,4-Methylenedioxy 6-nitro phenyl lipoate (INV-7465) (1.0 to 100 mg/kg). Alternate therapies include, 3,4-methylenedioxy phenyl acetate (INV 73); 3,4-methylenedioxy-6-nitrophenol (INV 74); 3,4-methylenedioxy-6-nitrophenyl acetate (INV 75); 3,4-Methylenedioxy 6-nitro phenyl lipoate (INV-7465) or 3,4-Methylenedioxy phenyl lipoate (INV-7065). The composition is administered in conjunction with therapy such as aspirin, a drug to reduce the tendency of platelet aggregation, such as clopidogrel bisulfate, a statin, ezetimibe, an angiotensin converting enzyme inhibitor or angiotensin receptor blocker, and other anti-hypertensive agents such as beta-blockers, using dosages known to one of ordinary skill in the art. Patient notes added benefit in total and LDL cholesterol and a reduction in inflammatory markers such as C reactive protein.

T1 sequence (Q07869 239-466 limits assumed): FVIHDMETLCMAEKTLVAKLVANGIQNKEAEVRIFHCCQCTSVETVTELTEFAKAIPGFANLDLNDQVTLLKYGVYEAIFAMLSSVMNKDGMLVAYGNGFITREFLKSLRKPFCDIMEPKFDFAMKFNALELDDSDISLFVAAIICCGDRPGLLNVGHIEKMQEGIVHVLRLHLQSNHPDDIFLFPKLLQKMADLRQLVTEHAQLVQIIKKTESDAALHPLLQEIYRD
T2 sequence (Q03181 211-439 limits assumed, species assumed): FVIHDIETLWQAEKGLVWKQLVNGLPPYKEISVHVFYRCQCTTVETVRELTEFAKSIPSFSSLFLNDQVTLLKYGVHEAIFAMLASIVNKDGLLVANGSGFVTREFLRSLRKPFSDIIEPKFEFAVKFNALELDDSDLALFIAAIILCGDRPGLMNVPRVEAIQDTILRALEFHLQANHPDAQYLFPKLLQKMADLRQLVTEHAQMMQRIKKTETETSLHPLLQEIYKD

| agonist properties on PPARα activation (PPARα) | PPARα ligand binding activity (PPARα; 1 μM to 1000 μM) | effects on PPARδ (PPARδ) | Structure (SMILES) | LDL cholesterol [1] | total cholesterol [1] | basal super oxide production in the aorta (DHE) [2] | reduction in atherosclerosis burden compared to control group [3] | 8-Isoprostane production in aortic homogenates [4] | 8-Isoprostane production in plasma [4] | inflammatory markers such as C reactive protein (Patient) | total and LDL cholesterol (Patient) |
| --- | --- | --- | --- | --- | --- | --- | --- | --- | --- | --- | --- |
| selective but partial agonist | increased | without effects | CC(=O)Oc1cc2c(cc1[N+](=O)[O-])OCO2 [INV-75, 3,4-methylenedioxy-6-nitrophenyl acetate] | no differences | no differences | reduction | Approximately 60% | significantly lower | significantly lower | – | – |
| – | – | – | O=C(CCCCC1CCSS1)Oc1cc2c(cc1[N+](=O)[O-])OCO2 (centres unmarked) [INV-7465, 3,4-Methylenedioxy 6-nitro phenyl lipoate] | – | – | – | – | – | – | reduction | added benefit |

Source: patent US8198317B2, “Methylenedioxy phenolic compounds and their use to treat disease” (The Ohio State University Research Foundation, priority 2008, dated 2012)
